According to patent US20140134197A1, “Mimotopic Peptides for the Diagnosis and Treatment of Multiple sclerosis” (priority 2011, published 2014):
Counter-ions that a name gives are not always drawn. Like-named read-outs stand apart in the source and are kept apart here. Ends that are not written are not given here.

What was measured:
[1] = Tables 3a-3e, from cited literature, cited from earlier work
[2] = Solubility / hydrophilicity of mimotopic peptides, free or with amino-ADOOA-ADOOA linker; assay type: physicochemical
Excerpt: Dimeric IgE complexing hinges upon disruption of the overhanging oligodendrocyte membrane surface and facilitated intracellular autoantibody inflow. […] Table 4a lists structurally unique, mimotopic, peptides serving as diagnostic and therapeutic antigens. […] Peptides used for initial diagnosis can be of maximum, unique length (column 3) or can be fractionated into pentameric, single epitope equivalents (column 5). […] The amide group is used for covalent Coupling to microplate wells. The 3,6-dioxaoctanoic acid2 construct, being very hydrophilic, solubilizes most al peptides, especially those that are relatively hydrophobic. The listed myelin, dimer-cornerstone peptide homologues (bold-highlighted) for MS therapy are useful because of their in-vivo: (a) net hydrophilicity for adequate solubility; […] The linker provides both increased hydrophilicity for enhanced solubility and serves as a point of attachment onto microtiter test plate wells. The peptide […] NO: 3) is an example of a soluble short peptide that is comprised of a singularly unique MOG surface pentamer, […]

Row | Compound | Immunosuppressive Effects [1] | hydrophilicity / solubilization when coupled with amino-ADOOA-ADOOA linker [2] | further results
1 | CN1C(=O)CN=C(c2ccccc2)c2cc(Cl)ccc21 [Diazepam] | Markedly Suppresses Antigen- |  | 
2 | HGRTQ [HGRTQ] |  | solubilize readily | 
3 | Cc1nnc2n1-c1ccc(Cl)cc1C(c1ccccc1)=NC2 [Alprazolam] | Inhibits proliferative responses |  | 
4 | Fc1ccc([C@@H]2CCNC[C@H]2COc2ccc3c(c2)OCO3)cc1 [Paroxetine] |  |  | Immunosuppressive Effects ([1]; CD4 T-helper cells): Decreases CD4 T-Helper Cells.; Immunosuppressive Effects ([1]; splenocyte viability): Inhibit Splenocyte Viability.
5 | DHSYQE [DHSYQE] |  |  | solubility of short therapeutic peptide [2]: soluble
6 | Nc1ccc(O)c(C(=O)O)c1 [Mesalazine] | Potent and Specific Inhibitor |  | 
7 | KDSHHPA [Lys Asp Ser His His Pro Ala] |  | solubilize readily | 
8 | DNTFKD [DNTFKD] |  | sufficiently hydrophilic | 
9 | CNCCC(Oc1ccc(C(F)(F)F)cc1)c1ccccc1 (stereo not drawn) [Fluoxethine] | Decreases T Lymphocyte |  | 
10 | NS(=O)(=O)Cc1noc2ccccc12 [Zonisamide] | Suppression of IFN-gamma |  | 
11 | N[C@@H](Cc1cc(I)c(Oc2cc(I)c(O)c(I)c2)c(I)c1)C(=O)O [Levoxyl, Levothyroxine] | Inhibits Cytokine |  | 
12 | O=C1NC(=O)C(c2ccccc2)(c2ccccc2)N1 [Dilantin, Phenytoin sodium] | Humoral Immune Suppressant |  | 
13 | QDTAVT [QDTAVT] |  | sufficiently hydrophilic | 
14 | CC(C)c1nc(N(C)S(C)(=O)=O)nc(-c2ccc(F)cc2)c1/C=C/[C@@H](O)C[C@@H](O)CC(=O)O [Rosuvastatin] | Post-Transcriptional Level |  | 
15 | NLHRTFE [Asn Leu His Arg Thr Phe Glu] |  | sufficiently hydrophilic | 
16 | Lys Gly Thr Gln Phe (KGTQF; listed as Homo sapiens) [KTGQF] |  |  | aggregation tendency [2]: dual molecule aggregate-forming tendencies
17 | COc1ccc(C(CN(C)C)C2(O)CCCCC2)cc1 (stereo not drawn) [Venlafaxine] | Suppresses pro-Inflammatory |  | 
18 | CC(C)c1c(C(=O)Nc2ccccc2)c(-c2ccccc2)c(-c2ccc(F)cc2)n1CC[C@@H](O)C[C@@H](O)CC(=O)O [Atorvastatin] | Increases in IL-10 Production. |  | 
19 | CN[C@H]1CC[C@@H](c2ccc(Cl)c(Cl)c2)c2ccccc21 [Sertraline hydrochloride] |  |  | Immunosuppressive Effects ([1]; hydrochloride, antigen-specific TH1 responses): Suppression of Antigen-
20 | YKDSHHPA |  | solubilize readily | 
21 | LQTIQE [LQTIQE] |  | sufficiently hydrophilic | 
22 | PKNAW [PKNAW] |  | sufficiently hydrophilic | 
23 | DNEVFGEA |  | sufficiently hydrophilic | 
